Measurements reported in publication PMC6858373 (Scientific Reports, 2019).
Where two headings read alike, the source gives them in different places.

How the values were obtained:
[1] = target: T1, FGF14:Nav1.6 C-tail complex (Homo sapiens, UniProt Q92915+Q9UQD0); experiment: Split-luciferase complementation assay (LCA) in Clone V double stable HEK293 cells; format: cell-based
T1 construct: polymerase chain reaction (PCR) amplification of the FGF14 open reading frame (nt 1–855); C-terminal fragment of Nav1.6 (amino acids 1763–1976) fused with CD4ΔC-tail (amino acids 1–395); expressed in transfected cells

[2] = target: full-length P. pyralis luciferase (Photinus pyralis, UniProt P08659, K549A/L550V/N119G/N50D/S548I); format: cell-based
[3] = CC_NCI screening, LCA luminescence, biological replicate Set 1, normalized to on-plate 0.3% DMSO controls (n=16 per plate)
[4] = CC_NCI screening, LCA luminescence, biological replicate Set 2, normalized to on-plate 0.3% DMSO controls (n=16 per plate)
[5] = CC_NCI screening, LCA, biological replicate Set 1, normalized to on-plate 0.3% DMSO controls
[6] = CC_NCI screening, LCA, biological replicate Set 2, normalized to on-plate 0.3% DMSO controls
[7] = CC_NCI screening, average of Set 1 and Set 2, normalized to 0.3% DMSO controls
[8] = CC_NCI screening, full-length luciferase counter-screen luminescence, normalized to on-plate 0.3% DMSO controls
[9] = CC_NCI screening, full-length luciferase counter-screen, normalized to on-plate 0.3% DMSO controls
[10] = CC_NCI screening, biological replicate Set 1, normalized to on-plate 0.3% DMSO controls
[11] = CC_NCI screening, biological replicate Set 1, normalized to on-plate 0.3% DMSO controls (n=16 per plate)
[12] = CC_NCI screening, biological replicate Set 2, normalized to on-plate 0.3% DMSO controls
[13] = CC_NCI screening, biological replicate Set 2, normalized to on-plate 0.3% DMSO controls (n=16 per plate)
[14] = average of Set 1 and Set 2, normalized to 0.3% DMSO controls
[15] = CC_NCI screening, normalized to on-plate 0.3% DMSO controls

T1 sequence (Q92915 1-252 isoform Q92915-2): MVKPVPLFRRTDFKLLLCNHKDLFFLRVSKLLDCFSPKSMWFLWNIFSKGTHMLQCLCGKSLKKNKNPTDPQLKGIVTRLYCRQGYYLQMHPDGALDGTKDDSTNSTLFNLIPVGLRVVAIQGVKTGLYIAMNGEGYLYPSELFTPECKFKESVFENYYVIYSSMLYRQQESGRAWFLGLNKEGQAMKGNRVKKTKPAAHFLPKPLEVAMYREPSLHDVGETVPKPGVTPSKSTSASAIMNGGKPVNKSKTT
T1 sequence (Q9UQD0 1763-1976 limits assumed): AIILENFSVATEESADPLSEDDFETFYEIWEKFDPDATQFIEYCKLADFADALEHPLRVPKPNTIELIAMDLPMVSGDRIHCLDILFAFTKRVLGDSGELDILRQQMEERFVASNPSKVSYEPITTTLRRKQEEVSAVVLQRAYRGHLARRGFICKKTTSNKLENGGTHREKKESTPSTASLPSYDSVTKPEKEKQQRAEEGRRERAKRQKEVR
Chain of full-length P. pyralis luciferase (P08659 whole entry N50D/N119G/S548I/K549A/L550V, looked up): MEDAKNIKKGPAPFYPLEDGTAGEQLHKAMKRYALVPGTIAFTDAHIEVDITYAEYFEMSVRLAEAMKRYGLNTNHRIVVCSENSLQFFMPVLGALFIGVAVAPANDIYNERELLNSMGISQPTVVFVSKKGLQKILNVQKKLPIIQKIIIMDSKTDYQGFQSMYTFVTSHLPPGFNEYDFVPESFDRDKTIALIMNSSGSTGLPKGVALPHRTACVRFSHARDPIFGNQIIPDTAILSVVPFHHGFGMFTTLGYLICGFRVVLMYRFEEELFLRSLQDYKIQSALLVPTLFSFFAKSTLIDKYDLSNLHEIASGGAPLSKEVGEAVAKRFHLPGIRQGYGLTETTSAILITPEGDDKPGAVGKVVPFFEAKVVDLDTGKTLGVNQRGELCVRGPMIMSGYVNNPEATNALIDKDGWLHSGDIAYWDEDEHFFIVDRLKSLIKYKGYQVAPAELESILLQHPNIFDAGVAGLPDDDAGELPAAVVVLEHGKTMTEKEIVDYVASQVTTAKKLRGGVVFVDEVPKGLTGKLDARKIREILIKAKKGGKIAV

Structure (SMILES)	Split Luciferase Assay % Lum Set 1 [1, 3] [%]	Split Luciferase Assay %Lum Set 2 [1, 4] [%]	Split Luciferase Assay Z-score Set 1 [1, 5]	Split Luciferase Assay Z-score Set 2 [1, 6]	Split Luciferase Assay %Lum Avg [1, 7] [%]	Luciferase Assay % Lum [2, 8] [%]	Luciferase Assay Z-score [2, 9]	Toxicity Assay % Fluor (Clone V cells) [%]	Toxicity Assay Z-score (Clone V cells)	further results
CNC(=O)c1ccccc1Sc1ccc2c(/C=C/c3ccccn3)n[nH]c2c1 [Axitinib]	32.94	31.21	-5.42	-5.60	32.07	24.49	-9.67	91.66	-1.17	
O=P1(N(CCCl)CCCl)NCCCO1 (stereo not shown) [Cyclophosphamide]										Split Luciferase Assay % Lum Set 1 [1]: 107.95%; Split Luciferase Assay %Lum Avg [1]: 112.75%; Split Luciferase Assay %Lum Set 2 [1]: 117.56%; Split Luciferase Assay Z-score Set 1 [1]: 0.64; Split Luciferase Assay Z-score Set 2 [1]: 1.43; Luciferase Assay % Lum [2]: 101.62%; Luciferase Assay Z-score [2]: 0.21; Toxicity Assay % Fluor (Clone V cells; human): 98.87%; Toxicity Assay Z-score (Clone V cells; human): -0.16
COc1cccc(-c2cc(=O)c3ccccc3o2)c1N [PD 98059]	103.60	106.11	0.29	0.50	104.86	90.17	-1.26	88.34	-1.63	
CC(C)(C)c1nc(-c2cccc(NS(=O)(=O)c3c(F)cccc3F)c2F)c(-c2ccnc(N)n2)s1.CS(=O)(=O)O [Dabrafenib mesylate]	126.43	121.72	2.14	1.77	124.07	100.50	0.06	93.50	-0.91	
CCN(CC)CCCC(C)Nc1nc(C)cc(Nc2ccc3nc(C)cc(N)c3c2)n1 (stereo not shown) [NSC23766]										Split Luciferase Assay Z-score Set 1 [1, 10]: 0.12; Split Luciferase Assay % Lum Set 1 [1, 11]: 101.43%; Split Luciferase Assay Z-score Set 2 [1, 12]: -0.01; Split Luciferase Assay %Lum Set 2 [1, 13]: 99.87%; Split Luciferase Assay %Lum Avg [1, 14]: 100.65%; Luciferase Assay Z-score (full-length luciferase counter-screen) [2, 15]: 0.79; Toxicity Assay % Fluor (CTB cell viability fluorescence) (Clone V cells): 111.37%; Toxicity Assay Z-score (CTB cell viability) (Clone V cells): 1.59
c1cc(-c2cnn3cc(-c4ccc(OCCN5CCCCC5)cc4)cnc23)ccn1 [COMPOUND C]										Split Luciferase Assay Z-score Set 1 [1, 10]: 3.01; Split Luciferase Assay Z-score Set 2 [1, 12]: 1.26; Split Luciferase Assay %Lum Set 2 [1, 13]: 115.47%; Split Luciferase Assay %Lum Avg [1, 14]: 126.39%; Luciferase Assay % Lum (full-length luciferase counter-screen) [2, 15]: 104.57%; Luciferase Assay Z-score (full-length luciferase counter-screen) [2, 15]: 0.59; Toxicity Assay % Fluor (CTB cell viability fluorescence) (Clone V cells): 115.42%; Toxicity Assay Z-score (CTB cell viability) (Clone V cells): 2.16
C=CCNC1=C2C[C@@H](C)C[C@H](OC)[C@H](O)[C@@H](C)/C=C(\C)[C@H](OC(N)=O)[C@@H](OC)/C=C\C=C(/C)C(=O)NC(=CC1=O)C2=O [Compound 17-AAG]	45.98	41.61	-4.37	-4.75	43.80	80.45	-2.50	88.49	-1.61	
Cc1cc(Nc2ncc3cc(-c4c(Cl)cccc4Cl)c(=O)n(C)c3n2)ccc1F [PD 180970]	120.99	116.51	1.70	1.34	118.75	100.96	0.12	102.30	0.32	
COc1ccc2c(c1OC)N=C(NC(=O)c1cccnc1)N1CCN=C21 [PIK 90]										Split Luciferase Assay Z-score Set 1 [1, 10]: -0.15; Split Luciferase Assay % Lum Set 1 [1, 11]: 98.17%; Split Luciferase Assay Z-score Set 2 [1, 12]: -1.11; Split Luciferase Assay %Lum Set 2 [1, 13]: 86.35%; Split Luciferase Assay %Lum Avg [1, 14]: 92.26%; Luciferase Assay % Lum (full-length luciferase counter-screen) [2, 15]: 102.65%; Luciferase Assay Z-score (full-length luciferase counter-screen) [2, 15]: 0.34; Toxicity Assay % Fluor (CTB cell viability fluorescence) (Clone V cells): 101.53%; Toxicity Assay Z-score (CTB cell viability) (Clone V cells): 0.21
Cn1c(=O)n(-c2ccc(C(C)(C)C#N)cc2)c2c3cc(-c4cnc5ccccc5c4)ccc3ncc21 [BEZ 235]	91.64	100.91	-0.68	0.07	96.28	98.68	-0.17			Toxicity Assay % Fluor (Clone V cells; human, 16 h, 30 µM): 90.66%; Toxicity Assay Z-score (Clone V cells; human, 16 h, 30 µM): -1.31
O=C1NC(=O)/C(=C/c2ccc(-c3ccc(F)cc3O)o2)S1 [AS 252424]										Split Luciferase Assay Z-score Set 1 [1, 10]: -3.31; Split Luciferase Assay % Lum Set 1 [1, 11]: 59.03%; Split Luciferase Assay Z-score Set 2 [1, 12]: -4.84; Split Luciferase Assay %Lum Set 2 [1, 13]: 40.57%; Split Luciferase Assay %Lum Avg [1, 14]: 49.80%; Luciferase Assay % Lum (full-length luciferase counter-screen) [2, 15]: 69.90%; Luciferase Assay Z-score (full-length luciferase counter-screen) [2, 15]: -3.86; Toxicity Assay % Fluor (CTB cell viability fluorescence) (Clone V cells): 99.49%; Toxicity Assay Z-score (CTB cell viability) (Clone V cells): -0.07
Cn1cc(CNCC2CCN(c3ncc(C(=O)NO)cn3)CC2)c2ccccc21 [JNJ-26481585]	112.30	109.23	0.99	0.75	110.77	97.58	-0.31	96.89	-0.43	
Nc1nc(F)nc2c1ncn2[C@@H]1O[C@H](COP(=O)(O)O)[C@@H](O)[C@@H]1O [Fludarabine phosphate]	112.30	119.64	0.99	1.60	115.97	119.94	2.55			Toxicity Assay % Fluor (Clone V cells; human, 16 h, 30 µM): 95.37%; Toxicity Assay Z-score (Clone V cells; human, 16 h, 30 µM): -0.65
CCN(CCO)CCCOc1ccc2c(Nc3cc(CC(=O)Nc4cccc(F)c4)[nH]n3)ncnc2c1 [AZD1152-HQPA]	87.29	100.91	-1.03	0.07	94.10	84.20	-2.02			Toxicity Assay % Fluor (Clone V cells; human, 16 h, 30 µM): 93.28%; Toxicity Assay Z-score (Clone V cells; human, 16 h, 30 µM): -0.94
C[C@@H](N)[C@H]1CC[C@H](C(=O)Nc2ccncc2)CC1 [Compound Y-27632]	76.42	74.90	-1.91	-2.04	75.66	95.76	-0.54	96.21	-0.53	
CCCCCCCCCCCCSc1nc2c([nH]1)c(=O)n(C)c(=O)n2C	112.30	118.60	0.99	1.51	115.45	103.16	0.40	93.89	-0.85	
COc1cc(Nc2c(C#N)cnc3cc(OCCCN4CCN(C)CC4)c(OC)cc23)c(Cl)cc1Cl [Bosutinib]	10.11	17.69	-7.26	-6.70	13.90	70.20	-3.82	75.29	-3.45	
CC(/C=C/C(=O)NO)=C\[C@@H](C)C(=O)c1ccc(N(C)C)cc1 [TRICHOSTATIN A]	147.09	94.67	3.81	-0.43	120.88	33.58	-8.51	97.32	-0.37	
CN1CCN(c2ccc3nc(-c4c(N)c5c(F)cccc5[nH]c4=O)[nH]c3c2)CC1 [CHIR 258]	66.64	66.58	-2.70	-2.72	66.61	93.31	-0.86			Toxicity Assay % Fluor (Clone V cells; human, 16 h, 30 µM): 81.15%; Toxicity Assay Z-score (Clone V cells; human, 16 h, 30 µM): -2.64
